Assay [1] addresses T1, NAD-dependent protein deacylase sirtuin-5, mitochondrial (Homo sapiens, UniProt Q9NXA8). The assay is described as follows: Inhibition of SIRT5 (unknown origin) at 30 uM using (DABCYL)ISGASE(SuK)DIVHSE(EDANS)G peptide substrate incubated for 1 hrs followed by 1 hr incubation with trypsin and nicotinamide by FRET-based assay.
Target sequence in this assay (Q9NXA8 37-310 limits assumed): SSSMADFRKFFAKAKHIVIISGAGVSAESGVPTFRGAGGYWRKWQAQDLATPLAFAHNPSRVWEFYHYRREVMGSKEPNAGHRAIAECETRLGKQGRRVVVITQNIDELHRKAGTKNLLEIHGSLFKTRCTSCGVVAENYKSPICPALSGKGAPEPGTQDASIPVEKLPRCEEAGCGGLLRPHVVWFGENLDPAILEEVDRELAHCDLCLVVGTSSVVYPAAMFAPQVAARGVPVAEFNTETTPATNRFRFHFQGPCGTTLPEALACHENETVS
Assay [2] addresses T1, NAD-dependent protein deacylase sirtuin-5, mitochondrial. The assay is described as follows: Inhibition of human SIRT5 assessed as reduction in desuccinylase activity using KQTAR(SuK)STGGKA substrate.
Target sequence in this assay (Q9NXA8 whole entry): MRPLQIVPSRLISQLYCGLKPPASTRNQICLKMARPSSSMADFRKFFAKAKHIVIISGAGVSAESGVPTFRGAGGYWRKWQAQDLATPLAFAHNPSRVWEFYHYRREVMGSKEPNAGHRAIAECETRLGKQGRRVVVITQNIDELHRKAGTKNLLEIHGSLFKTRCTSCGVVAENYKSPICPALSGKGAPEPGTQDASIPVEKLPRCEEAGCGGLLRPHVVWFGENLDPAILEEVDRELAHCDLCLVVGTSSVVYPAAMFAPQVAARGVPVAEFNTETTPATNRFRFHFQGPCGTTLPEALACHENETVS

Calls of active or inactive are those of the source. The rule behind the calls is not given here.

On to `N#C/C(=C\c1ccc(-c2cc(Cl)ccc2Cl)o1)C(=O)Nc1cccc2ncccc12`, for which the inhibition result in assay [1] was “inactive”. The IC50 (usually the concentration at which inhibition is half-maximal) in assay [2] is more than 100 µM.

For `Cc1ccc(C(=O)Nc2ccc(S(=O)(=O)O)c3cc(S(=O)(=O)O)cc(S(=O)(=O)O)c23)cc1NC(=O)c1cccc(NC(=O)Nc2cccc(C(=O)Nc3cc(C(=O)Nc4ccc(S(=O)(=O)O)c5cc(S(=O)(=O)O)cc(S(=O)(=O)O)c45)ccc3C)c2)c1`, the inhibition entry in assay [1] is “Active”.

Consider `NC(=O)c1cccnc1`, for which, in assay [1], the inhibition entry was “inactive”.

For the molecule `CC(NC(=O)c1ccccc1/N=C/c1c(O)ccc2ccccc12)c1ccccc1` (stereo not drawn) [SIRTINOL], in assay [1], the inhibition entry was “inactive”. The concentration for half-maximal inhibition (IC50) in assay [2] was more than 100 µM.

With `O=C1CCc2c(ccc3ccccc23)O1` [SPLITOMICIN], in assay [1], the inhibition entry was “inactive”. Besides, the 50% inhibitory concentration (IC50) in assay [2] is more than 100 µM.
